Structures can show the parent of a compound that is named as a salt.
Legend:
[1] = read-out: Cmax (mean maximal plasma concentration), patients, ref Aravagiri et al. 1998, Hiemke et al. 2004, Suzuki et al. 2001, Yeung et al. 1993; cited from earlier work
[2] = calculated from mean tissue to plasma AUC ratios; ref [16]; Aravagiri et al. 2002; Aravagiri et al. 1999; Manjunath and Venkateswarlu 2005; Hopenwasser et al. 2004; Sgaragli et al. 1995; Miyazaki et al. 1986; cited from earlier work
BCRP [3] = biological target: T1, BCRP (Homo sapiens, UniProt Q9UNQ0); experiment: cell-based
T1 sequence (Q9UNQ0 1-655): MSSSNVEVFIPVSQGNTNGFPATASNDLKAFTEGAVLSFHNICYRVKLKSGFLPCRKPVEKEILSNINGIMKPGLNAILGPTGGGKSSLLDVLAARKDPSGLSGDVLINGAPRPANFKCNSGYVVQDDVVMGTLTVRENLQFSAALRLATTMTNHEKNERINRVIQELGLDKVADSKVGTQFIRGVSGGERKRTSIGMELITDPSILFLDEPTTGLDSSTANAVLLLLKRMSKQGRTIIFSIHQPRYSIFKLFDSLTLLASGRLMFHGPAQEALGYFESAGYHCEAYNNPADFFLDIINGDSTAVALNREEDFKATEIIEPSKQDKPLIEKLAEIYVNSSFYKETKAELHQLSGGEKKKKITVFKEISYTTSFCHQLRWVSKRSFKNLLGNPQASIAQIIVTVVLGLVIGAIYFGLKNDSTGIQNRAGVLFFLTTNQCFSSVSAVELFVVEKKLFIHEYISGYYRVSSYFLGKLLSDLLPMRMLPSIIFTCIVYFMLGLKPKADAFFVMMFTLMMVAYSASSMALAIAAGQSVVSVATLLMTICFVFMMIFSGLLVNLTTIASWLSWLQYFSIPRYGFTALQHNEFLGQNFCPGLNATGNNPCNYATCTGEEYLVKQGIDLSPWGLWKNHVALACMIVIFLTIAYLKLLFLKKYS

BCRP [4] = biological target: T1, BCRP; conditions: estimated liver concentration divided by BCRP IC50 in MCF7/MX100 cells

IC50 (BCRP [3])	Cmax * liver:plasma partition ratio/IC50 (BCRP [4])	SMILES	Cmax [1]	Liver:plasma partition ratio [2]
52.2 µM	0.6	CN(C)CCCN1c2ccccc2Sc2ccc(Cl)cc21 [Chlorpromazine, chlorpromazine hydrochloride]	300 nM	97.7 ^9
42 µM		CN1CCN(C2=Nc3cc(Cl)ccc3Nc3ccccc32)CC1 [Clozapine, clozapine]	2500 nM	
> 100 µM		O=C(CCCN1CCC(O)(c2ccc(Cl)cc2)CC1)c1ccc(F)cc1 [Haloperidol]	50 nM	
		Cc1cc2c(s1)Nc1ccccc1N=C2N1CCN(C)CC1 [Olanzapine]	300 nM	
51 µM	0.5	Cc1nc2n(c(=O)c1CCN1CCC(c3noc4cc(F)ccc34)CC1)CCCC2O (stereo not drawn) [Paliperidone, 9-hydroxy-risperidone]	400 nM	67.5 ^5
66.1 µM	0.04–0.10	OCCOCCN1CCN(C2=Nc3ccccc3Sc3ccccc32)CC1 [Quetiapine, quetiapine]	800 nM	3.5–8.7 ^8
		Cc1nc2n(c(=O)c1CCN1CCC(c3noc4cc(F)ccc34)CC1)CCCC2 [Risperidone]	400 nM	

Reference: article PMC2637613 (Basic & clinical pharmacology & toxicology, 2008)
